# Laboratory results from patent US20240116946A1 (Gilead Sciences, Inc., priority 2022, published 2024).
# pEC50, pIC50: −log10 of the molar value. Like-named read-outs stand apart in the source and are kept apart here.
# Assays:
# [1] = molecular target: recombinant SARS-CoV-2 Main protease (Mpro) (Severe acute respiratory syndrome coronavirus 2 (2019-nCoV) (SARS-CoV-2), UniProt P0DTD1); assay: Cov Mpro Biochemical IC50 Assay; conditions: read-out: MPro IC50
# [2] = tested on: SARS-CoV-2-NLuc; assay: microbe, parasite or virus in culture; format: cell-based, SARS Coronavirus 2
# [3] = recombinant SARS-CoV-2 Mpro, fluorogenic peptide substrate
# [4] = Severe acute respiratory syndrome coronavirus, 48 h, read-out: MPro EC50
# [5] = recombinant SARS-CoV-2 Mpro 7.5 nM, fluorogenic peptide substrate 40 μM
# [6] = Severe acute respiratory syndrome coronavirus, 48 h; read-out: MPro EC50
SMILES,"pIC50 [1, 3]","pEC50 [2, 4]","pIC50 [1, 5]","pEC50 [2, 6]",pEC50 ([2]; read-out: MPro EC50)
CS(=O)(=O)c1ccc(-c2cccc(Cl)c2-c2ccc3c(=O)n(-c4cncc5ccccc45)c(=O)[nH]c3c2)cn1 [Example 204],7.93,7.31,–,–,–
N#CCCn1c(=O)n(-c2cccnc2)c(=O)c2sc(-c3ccc(F)cc3Cl)cc21 [Example 800],–,–,7.49,6.94,–
COc1cc(-c2cc3c(s2)c(=O)n(-c2cncc4ccccc24)c(=O)n3Cc2ncn(C)n2)c(Cl)cc1F [Example 689],–,7.52,7.50,–,–
Cc1nn(C)cc1-c1cccc(Cl)c1-c1cc2[nH]c(=O)n(-c3cncc(C4CC4)c3)c(=O)c2s1 [Example 617],–,7.71,8.14,–,–
COc1ccc(Cl)c(-c2ccc3c(=O)n(-c4cncc(C)c4OCC(F)(F)F)c(=O)[nH]c3c2)c1 [Example 375],6.46,–,–,6.20,–
O=c1[nH]c2cc(-c3ccc(F)cc3Cl)ccc2c(=O)n1-c1cncc2ccccc12 [Example 183],6.23,6.45,–,–,–
"COc1cc(-c2cc3c(s2)c(=O)n(-c2cnccc2C)c(=O)n3CCC#N)c(Cl)cc1F (single isomer, unassigned) [Example 1030, 3-[6-(2-chloro-4-fluoro-5-methoxy-phenyl)-3-(4-methyl-3-pyridyl)-2,4-dioxo-thieno[3,2-d]pyrimidin-1-yl]propanenitrile]",–,–,8.35,–,8.01
COc1cc(-c2ccc3c(=O)n(-c4cncc5ccccc45)c(=O)[nH]c3c2)c(C#N)cc1F [Example 319],7.97,7.55,–,–,–
COc1cnc(C#N)c(-c2cc3c(s2)c(=O)n(-c2cncc(C)c2)c(=O)n3CCC#N)c1 [Example 887],–,–,7.98,7.18,–
COc1cc(-c2cc3c(s2)c(=O)n(-c2cncc4c(F)cccc24)c(=O)n3CCC#N)c(Cl)cc1F [Example 950],–,7.93,8.35,–,–
COc1cc(-c2cc3c(s2)c(=O)n(-c2cncc4nc(-c5ccccc5F)n(C)c24)c(=O)n3CCC#N)c(Cl)cc1F [Example 756],–,7.04,7.71,–,–
NC(=O)c1cccc(-c2cccc(Cl)c2-c2ccc3c(=O)n(-c4cncc5ccccc45)c(=O)[nH]c3c2)c1 [Example 242],7.98,7.40,–,–,–
Cn1cncc1-c1cccc(Cl)c1-c1cc2[nH]c(=O)n(-c3cncc4ccccc34)c(=O)c2s1 [Example 525],–,7.09,7.98,–,–
COc1ccc(Cl)c(-c2cc(F)c3c(=O)n(-c4cncc5ccccc45)c(=O)[nH]c3c2)c1 [Example 221],7.18,–,–,7.30,–
"COc1cc(-c2cc3c(s2)c(=O)n(-c2cncc4cnn(C)c24)c(=O)n3C)c(Cl)cc1F [Example 898, 6-(2-chloro-4-fluoro-5-methoxyphenyl)-1-methyl-3-(1-methyl-1H-pyrazolo[4,3-c]pyridin-7-yl)thieno[3,2-d]pyrimidine-2,4(1H,3H)-dione]",–,7.92,7.89,–,–
Cc1ncccc1-c1ccc2c(=O)n(-c3cncc4ccccc34)c(=O)[nH]c2c1 [Example 63],5.23,5.07,–,–,–
"COc1cc(-c2cc3[nH]c(=O)n(-c4cncc5ccccc45)c(=O)c3s2)c(Cl)cc1F (single isomer, unassigned) [Example 556, 6-(2-chloro-4-fluoro-5-methoxyphenyl)-3-(isoquinolin-4-yl)thieno[3,2-d]pyrimidine-2,4(1H,3H)-dione]",–,–,8.47,–,8.69
COc1cccc(C#N)c1-c1ccc2c(=O)n(-c3cncc4ccccc34)c(=O)[nH]c2c1 [Example 71],7.12,6.85,–,–,–
"Cc1nc2cncc(-n3c(=O)c4sc(-c5ccc(F)cc5Cl)cc4n(CCC#N)c3=O)c2n1C [Example 853, 3-(6-(2-chloro-4-fluorophenyl)-3-(1,2-dimethyl-1H-imidazo[4,5-c]pyridin-7-yl)-2,4-dioxo-3,4-dihydrothieno[3,2-d]pyrimidin-1(2H)-yl)propanenitrile]",–,6.99,7.57,–,–
O=c1[nH]c2cc(-c3c(Cl)cccc3-c3ccnnc3)sc2c(=O)n1-c1cncc2ccccc12 [Example 112],8.28,7.41,–,–,–
Cc1cncc(-c2cccc(Cl)c2-c2ccc3c(=O)n(-c4cncc5ccccc45)c(=O)[nH]c3c2)c1 [Example 198],8.06,8.07,–,–,–
N#Cc1cccc(-c2cccc(Cl)c2-c2ccc3c(=O)n(-c4cncc5ccccc45)c(=O)[nH]c3c2)c1 [Example 184],7.03,7.40,–,–,–
COc1ccc(Cl)c(-c2cc3[nH]c(=O)n(-c4cncc5ccc(C)nc45)c(=O)c3s2)c1 [Example 459],–,7.69,7.74,–,–

SMILES,"pIC50 [1, 3]","pEC50 [2, 4]","pIC50 [1, 5]","pEC50 [2, 6]",pEC50 ([2]; read-out: MPro EC50)
O=c1[nH]c2cc(-c3cc(Cl)c(F)cc3Cl)sc2c(=O)n1-c1cncc2ccccc12 [Example 726],–,7.41,7.64,–,–
CN(C)c1cncc(-n2c(=O)[nH]c3cc(-c4ccccc4Cl)sc3c2=O)c1 [Example 380],5.23,6.11,–,–,–
"COc1ccc(Cl)c(-c2cc3[nH]c(=O)n(-c4cncc5ccccc45)c(=O)c3s2)c1 [Example 174, 6-(2-chloro-5-methoxyphenyl)-3-(isoquinolin-4-yl)thieno[3,2-d]pyrimidine-2,4(1H,3H)-dione]",8.16,7.51,–,–,–
COc1cc(-c2cc3c(s2)c(=O)n(-c2cncc4nc(C5CC5)n(C)c24)c(=O)n3CCC#N)c(Cl)cc1F [Example 992],–,6.95,7.74,–,–
Cn1ncc2cncc(-n3c(=O)c4sc(-c5cc(F)ccc5Cl)cc4n(CCC#N)c3=O)c21 [Example 789],–,8.32,8.24,–,–
COc1cncc(-n2c(=O)c3sc(-c4ccccc4C#N)cc3n(CCC#N)c2=O)c1 [Example 814],–,–,7.35,6.87,–
Cc1cnnc(-n2c(=O)c3sc(-c4ccccc4Cl)cc3n(CCC#N)c2=O)c1 [Example 835],–,–,8.03,7.55,–
COc1ccc(Cl)c(-c2cnc3c(=O)n(-c4cncc5ccccc45)c(=O)[nH]c3c2)c1 [Example 219],8.30,–,–,6.74,–
COc1cc(-c2cc3[nH]c(=O)n(-c4cncc5ccccc45)c(=O)c3s2)c(Cl)cc1C [Example 341],8.26,8.34,–,–,–
O=c1[nH]c2cc(-c3ccccc3C3CC3)sc2c(=O)n1-c1cncc2ccccc12 [Example 16],6.78,6.74,–,–,–
COc1cc(-c2cc3[nH]c(=O)n(-c4cncc5cnn(C)c45)c(=O)c3s2)c(Cl)cc1Cl [Example 667],–,7.73,7.85,–,–
Cn1cc(-c2cccc(Cl)c2-c2cc3[nH]c(=O)n(-c4cncc5ccccc45)c(=O)c3s2)c(C2CC2)n1 [Example 527],–,8.84,8.49,–,–
O=c1[nH]c2cc(-c3ccccc3Cl)cc(F)c2c(=O)n1-c1cncc2ccccc12 [Example 222],6.81,6.82,–,–,–
N#CCCn1c(=O)n(-c2cncc(Cl)c2)c(=O)c2sc(-c3ccc(F)cc3Cl)cc21 [Example 787],–,7.48,7.89,–,–
O=c1[nH]c2cc(-c3cc(C4CC4)ccc3Cl)sc2c(=O)n1-c1cncc2ccccc12 [Example 351],7.71,7.16,–,–,–
COc1cccc(C)c1-c1ccc2c(=O)n(-c3cncc4ccccc34)c(=O)[nH]c2c1 [Example 89],6.07,6.05,–,–,–
COc1cc(-c2cc3[nH]c(=O)n(-c4cncc5cnn(CC(F)(F)F)c45)c(=O)c3s2)c(Cl)cc1F [Example 507],–,7.41,7.73,–,–
Cc1cc(-c2cccc(Cl)c2-c2ccc3c(=O)n(-c4cncc5ccccc45)c(=O)[nH]c3c2)cc(C)n1 [Example 208],8.12,8.38,–,–,–
COc1ccc(Cl)c(-c2cc3[nH]c(=O)n(-c4cncc5ccc(N6CCn7nnc(C)c7C6)cc45)c(=O)c3s2)c1 [Example 606],–,7.55,> 8.60,–,–
"O=c1[nH]c2sc(-c3ccccc3)nc2c(=O)n1-c1cncc2ccccc12 [Example 158, 6-(isoquinolin-4-yl)-2-phenylthiazolo[5,4-d]pyrimidine-5,7(4H,6H)-dione]",6.88,4.72,–,–,–
O=c1[nH]c2cc(-c3ccccc3Cl)sc2c(=O)n1-c1cncc2ccc(N3CC(O)(C(F)(F)F)C3)cc12 [Example 426],–,7.39,7.67,–,–
"NC(=O)c1ccccc1-c1ccc2c(=O)n(-c3cncc4ccccc34)c(=O)[nH]c2c1 [Example 66, 2-(3-(isoquinolin-4-yl)-2,4-dioxo-1,2,3,4-tetrahydroquinazolin-7-yl)benzamide]",5.70,< 4.30,–,–,–
